Data taken from PubChem BioAssay (NCI).
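Following 48 hours of exposure in 96-well plates, responses at five concentrations were used to interpolate endpoints linearly. GI50 is the concentration that inhibits growth by half. TGI: total growth inhibition.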

Columns and labels:
Test in all cases: NCI tumour cell line growth inhibition, 48 h
[1] = system: SF-268 CNS
[2] = system: RXF 393 renal
[3] = system: TK-10 renal
[4] = system: EKVX NSCLC
[5] = system: SF-295 CNS
[6] = system: OVCAR-5 ovarian
[7] = system: MOLT-4 leukemia
[8] = system: RPMI-8226 leukemia
[9] = system: HCC-2998 colon
[10] = system: NCI-H23 lung

Row | Compound | TGI [1] [µM] | TGI [2] [µM] | TGI [3] [µM] | TGI [4] [µM] | TGI [5] [µM] | TGI [6] [µM] | TGI [7] [µM] | TGI [8] [µM] | TGI [9] [µM] | TGI [10] [µM] | GI50 [2] [µM] | GI50 [3] [µM] | GI50 [6] [µM] | GI50 [9] [µM] | GI50 [10] [µM] | GI50 [1] [µM] | GI50 [4] [µM] | GI50 [5] [µM] | GI50 [7] [µM] | GI50 [8] [µM]
1 | COc1ccc2c(c1)CCC(CN1CCN(CCOC(c3ccc(F)cc3)c3ccc(F)cc3)CC1)C2O (centres undefined) | 27 | 26.3 | 29.7 | 25.5 | 34.5 | 28.6 | 36.2 | 35.4 | 9.33 | 28.1 | – | – | – | – | – | – | – | – | – | –
2 | C/C1=N\NC(=O)c2ccccc2C(=O)N/N=C(\C)c2cccc1n2.O=[N+]([O-])[O-].[Zn+2] | > 100 | – | > 100 | > 100 | > 100 | > 100 | > 100 | > 100 | > 100 | > 100 | – | – | – | – | – | – | – | – | – | –
3 | CCN=C=NCCCN(C)C | > 100 | > 100 | > 100 | > 100 | > 100 | > 100 | > 100 | > 100 | – | > 100 | – | – | – | – | – | – | – | – | – | –
4 | COc1ccc2[nH]c3c([N+](=O)[O-])ccc(Cl)c3c(=O)c2c1 | 53.6 | 32.2 | > 56.6 | > 100 | > 100 | > 58 | 12.8 | 45.4 | > 71.2 | > 52.8 | – | – | – | – | – | – | – | – | – | –
5 | Nc1ccc(OCC(O)N2C(=O)c3ccccc3C2=O)cc1 (centres undefined) | > 100 | – | > 100 | > 100 | > 100 | > 100 | > 100 | > 100 | > 100 | – | – | – | – | – | – | – | – | – | – | –
6 | CC(C)(C)C1(c2ccc(C3(c4ccccc4)Oc4ccccc4S3)[nH]2)Oc2ccccc2S1 (centres undefined) | > 100 | > 100 | > 100 | > 100 | > 100 | > 100 | > 100 | > 100 | > 100 | > 100 | – | – | – | – | – | – | – | – | – | –
7 | Nc1cc(S(=O)(=O)O)cc2cc(S(=O)(=O)O)c(N=Nc3ccc(-c4ccc(N=Nc5c(S(=O)(=O)O)cc6cc(S(=O)(=O)O)cc(N)c6c5O)cc4)cc3)c(O)c12 | > 100 | > 100 | – | > 100 | > 100 | > 100 | > 100 | > 100 | > 100 | > 100 | – | – | – | – | – | – | – | – | – | –
8 | COC1/C=C\OC2(C)Oc3c(C)c(O)c4c(O)c(c(/C=N\OCCCc5ccccc5)c(O)c4c3C2=O)NC(=O)/C(C)=C\C=C/C(C)C(O)C(C)C(O)C(C)C(OC(C)=O)C1C (centres undefined) | 18.3 | 6.92 | 8.47 | 17.7 | 16.3 | 20.4 | 10.5 | – | 25.6 | 10 | – | – | – | – | – | – | – | – | – | –
9 | Cc1ccc(P(c2ccc(C)cc2)c2ccc(C)cc2)cc1 | > 100 | 30 | > 100 | > 100 | > 100 | 61.1 | 44.5 | 34.6 | 36 | > 100 | – | – | – | – | – | – | – | – | – | –
10 | C=C(CN(C)C)C(=O)c1ccc(C)cc1C | 35.4 | 9.4 | 22.2 | 40 | 31.6 | 31.1 | 2.25 | > 100 | 31.5 | 27.3 | – | – | – | – | – | – | – | – | – | –
11 | O=Nc1ccc(O)c2ncccc12 | 17.2 | 5.61 | 28.2 | 5.8 | 36 | 32.5 | > 100 | 99.8 | 31.1 | 3.04 | – | – | – | – | – | – | – | – | – | –
12 | C=C1C(=O)CCC1C(=O)O (centres undefined) | > 100 | > 100 | > 100 | > 100 | > 100 | > 100 | > 100 | > 100 | > 100 | > 100 | – | – | – | – | – | – | – | – | – | –
13 | C[C@H](C(=O)N[C@@H](Cc1ccc(-c2ccccc2)cc1)C(=O)NC1CC(C)(C)N(C)C(C)(C)C1)c1ccc(-c2ccccc2)c(F)c1 | – | 2.28 | 3.32 | – | – | 3 | – | – | 3.42 | 3.08 | 0.884 | 1.75 | 1.46 | 1.74 | 1.54 | – | – | – | – | –
14 | COc1ccc(-c2nn(-c3ccc(NC(=O)Nc4ccc(Cl)c(Cl)c4)cc3)cc2-c2ccncc2)cc1Cl | > 100 | 2.89 | > 100 | > 100 | > 100 | > 100 | > 100 | 3.18 | > 100 | > 100 | 0.862 | 2.04 | 2.8 | 2.78 | 2.22 | 4.19 | 2.18 | 2.21 | 1.89 | 0.54
